Assay results: PMC10983001, “Development of Cytotoxic GW7604-Zeise’s Salt Conjugates as Multitarget Compounds with Selectivity for Estrogen Receptor- Positive Tumor Cells” (Journal of Medicinal Chemistry, 2024)

How the values were obtained:
[1] = test system: SKBr3 cells; test: MTT assay of metabolic activity, SKBr3; type: cell-based, human; settings: 72 h, MTT
Experimental: The GW7604-Alk-PtCl3 complexes (with exclusion of GW7604-Prop-PtCl3) were investigated for cytotoxic effects in SKBr3 (ER-negative, COX-2-positive, Figure 6), MCF-7 (ERα-positive, COX-negative, Figure 6), and noncancerous TSA-201 (human embryonal kidney) cells at concentrations of 10–30 μM using an established MTT (3-(4,5-dimethylthiazol-2-yl)-2,5-diphenyltetrazolium bromide) assay.[60],[69]
After incubation for 72 h, the amounts of surviving, metabolically active cells were quantified based on their ability to transform the water-soluble yellow dye MTT to a purple formazan, which can be analyzed by UV–vis spectroscopy.
The exponentially growing cells were seeded at a density of 1750 (MCF-7), 2000 (SKBr3), and 1250 (TSA-201) cells/well into clear flat-bottom 96-well plates in triplicate. Following 24 h of incubation at 37 °C in a humidified atmosphere (5% CO2/95% air), the compounds [freshly prepared stock solutions in DMF, diluted with DMEM to the desired concentration (final DMF concentration of 0.1% (v/v))] were added to reach the indicated concentrations. After another 72 h of incubation, the cellular metabolic activity was measured employing an MTT assay. By adding predissolved MTT reagent in PBS at a final concentration of 0.5 mg/mL, the metabolic activity can be determined via an enzymatic conversion to a purple formazan salt. After 3 h, the medium was aspirated, and 200 μL of DMSO was added to dissolve the formed formazan crystals. The absorbance was measured at 570 and 690 nm (turbidity assessment) using an EnSpire plate reader (PerkinElmer, Waltham, MA, USA). Solvent-treated cells without a compound served as the positive control. Metabolic activity was calculated by the following equation [drawing 1]

[2] = test system: SKBr3 cells; test: Cellular uptake (platinum by HR-CS-AAS), SKBr3; type: cell-based, human; settings: 8 h
Experimental: In order to reach the DNA, the complexes must first pass through the cell membrane and penetrate into the nuclei. Therefore, the cellular uptake kinetics of GW7604-Alk-PtCl3 complexes were studied using the example of GW7604-Pent-PtCl3. This complex and Cisplatin, respectively, were incubated at a concentration of 20 μM with MCF-7 or SKBr3 cells. After various time points [i.e., 0 (3 min), 0.5, 1, 2, 4, and 8 h], cell pellets were prepared, and the platinum content was quantified by high-resolution continuum source atomic absorption spectrometry (HR-CS-AAS).[52]
After thawing of the cell/nuclei pellets, they were resuspended in ultrapure water (Siemens LaboStar, Günzburg, Germany; 300 μL) and lyzed with a sonotrode (Bandelin Sonoplus, Berlin, Germany; parameters 20 s, 9 cycles, 80% power). Graphite furnace (GF) AAS was used to quantify the lysates concerning their content of platinum (λ = 265.9450 nm). For this purpose, a contrAA 700 High-Resolution-Continous Source AAS (Analytik Jena, Jena, Germany) was employed, while atomization took place by electrothermal heating of graphite tubes with an inserted platform (Analytik Jena, Jena, Germany). A time–temperature program reported in the literature[25] was followed with minor adjustments. The liquid samples kept in 0.5 mL polystyrene vials (Gesellschaft für Analysentechnik, Salzwedel, Germany) were injected directly into the pyrolytically coated tubes using an MPE 60 autosampler (Analytik Jena, Jena, Germany). Throughout the measurements, argon (Alphagaz 1, 99.999%, Air Liquide, Düsseldorf, Germany) served as the purge and protective gas. The spectrometer was monitored with the ASpect CS software, version 2.3.1.0 (Analytik Jena, Jena, Germany). For all runs, the mean integrated absorbance was determined after three injections of each standard or sample. Calibration was performed by an appropriate dilution of a solution of Cisplatin (Sigma-Aldrich, Taufkirchen, Germany) obtaining five standards (2–10 μg/L, R^2 ≥ 0.982). Each cell/nuclei lysate was quantified concerning its protein content following the method of Bradford[71] in order to express the uptake as the amount of compound (pmol) in the lysate relative to its protein mass (mg). Therefore, solutions of Albumin fraction V (Carl Roth, Karlsruhe, Germany) diluted with ultrapure water were adduced for the calibration (six standards, 50–300 μg/mL, R^2 ≥ 0.996). […] All standards and lysates were measured in duplicate. After incubating for 5 min at rt, the absorbance (λ = 595 nm) was read on a microplate reader (Tecan Safire 2, Männedorf, Switzerland). […]

[3] = test system: MCF-7 cells; test: Hormonal (agonistic) activity: growth stimulation; type: cell-based, human; settings: MCF-7, low concentrations (<100 nM), data not shown
Source text: However, both agonistic properties and SERD effects can be excluded.

[4] = 30 μM, DMEM + 10% FCS, 37 °C, dark
Experimental: After protein precipitation with ice-cold methanol (MeOH), the compounds remaining in solution were analyzed by HPLC and electrospray ionization high-resolution mass spectrometry (ESI-HR-MS).
The solution was then incubated for 4 h at 37 °C in the dark. Proteins were precipitated upon addition of 33 mL of ice-cold MeOH, and the mixture was stored for 2 h at −20 °C. The supernatant was then separated by centrifugation (3000 rpm), collected, and dried by lyophilization. The lyophilizate was extracted three times with 5 mL of MeOH and finally dried under reduced pressure. The residue was taken up in 1 mL of HPLC-grade MeOH, and 30 μL thereof was analyzed by HPLC and ESI-HR-MS.

## CCC(=C(c1ccc(O)cc1)c1ccc(C=CC(=O)OCCC[CH]2[CH2][Pt-]2([Cl])([Cl])[Cl])cc1)c1ccccc1.[K+] (mixture of isomers) [GW7604-Pent-PtCl3, Potassium trichlorido[η^2-(pent-4-en-1-yl (E)-3-(4-((E/Z)-1-(4-hydroxyphenyl)-2-phenylbut-1-en-1-yl)phenyl)acrylate)]platinate(II)]
[1]
  IC50: > 30 µM
[2]; 20 μM
  platinum amount in SKBr3 relative to MCF-7 cells: about one-twelfth
[2]; SKBr3, 20 μM
  intracellular platinum amount: 67 pmol/mg
[3]
  agonistic effect: stimulation of growth: neither stimulated the growth
[4]
  time to complete degradation in cell culture medium: ≤ 4 h
